Reference: US20010007679A1, “(S,R) FORMOTEROL METHODS AND COMPOSITIONS” (priority 1999, published 2001)

Key:
[1] = target: human β1-adrenergic receptor (Homo sapiens, UniProt P08588); test: Second series: binding competition, human β1; conditions: for IC50: IC50 (nM) β1, Second series (human)
[2] = target: human β2-adrenergic receptor (Homo sapiens, UniProt P07550); test: Second series: binding competition, human β2; conditions: for IC50: IC50 (nM) β2, Second series (human); for β2 Selectivity (β1/β2): Second series (human)
Chain of human β2-adrenergic receptor (P07550 whole entry): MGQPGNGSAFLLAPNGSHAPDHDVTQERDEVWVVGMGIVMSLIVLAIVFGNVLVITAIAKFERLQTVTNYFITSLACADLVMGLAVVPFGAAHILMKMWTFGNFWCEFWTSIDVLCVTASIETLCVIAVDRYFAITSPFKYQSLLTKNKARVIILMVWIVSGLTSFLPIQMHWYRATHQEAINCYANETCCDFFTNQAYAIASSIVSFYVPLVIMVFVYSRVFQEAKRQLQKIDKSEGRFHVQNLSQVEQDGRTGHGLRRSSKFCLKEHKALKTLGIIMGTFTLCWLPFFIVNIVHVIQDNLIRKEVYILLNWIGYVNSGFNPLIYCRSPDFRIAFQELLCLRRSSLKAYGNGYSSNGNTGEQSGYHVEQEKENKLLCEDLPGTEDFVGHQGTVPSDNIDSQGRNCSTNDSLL
Description: (R,S)- and (S,R)-desformoterol were screened, in duplicate at three concentrations (10^−9, 10^−7, 10^−5 M), for binding to human β1 and β2-adrenergic receptors. Compounds that inhibited specific binding ≧50% were then tested further at ten concentrations in duplicate in order to obtain full competition curves. Reference compounds were simultaneously tested at eight concentrations.

BEAS-2B cells = test: Intrinsic activity: cAMP production by radioimmunoassay; assay type: cell-based; conditions: 100-times the Kd concentration, relative to isoproterenol (set to 1.0)
Description: The assessment of intrinsic activity was evaluated in BEAS-2B cells grown to confluence. […] Samples were assayed for cAMP by radioimmunoassay.

Chain of human β1-adrenergic receptor (P08588 whole entry): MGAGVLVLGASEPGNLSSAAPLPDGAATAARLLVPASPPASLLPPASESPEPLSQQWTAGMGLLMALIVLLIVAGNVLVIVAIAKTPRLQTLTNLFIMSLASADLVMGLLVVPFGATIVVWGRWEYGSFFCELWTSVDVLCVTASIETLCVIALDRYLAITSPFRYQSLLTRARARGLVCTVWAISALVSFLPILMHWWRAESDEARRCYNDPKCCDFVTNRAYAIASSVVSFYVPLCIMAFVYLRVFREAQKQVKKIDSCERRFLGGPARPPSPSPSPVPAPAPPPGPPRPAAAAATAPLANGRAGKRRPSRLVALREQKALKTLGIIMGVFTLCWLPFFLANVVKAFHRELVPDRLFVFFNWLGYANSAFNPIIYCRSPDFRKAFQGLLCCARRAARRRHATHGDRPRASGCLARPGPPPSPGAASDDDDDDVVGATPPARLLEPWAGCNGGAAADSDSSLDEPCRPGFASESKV

| Structure (SMILES) | IC50 [1] [nM] | IC50 [2] [nM] | β2 Selectivity (β1/β2) [2] | Intrinsic Activity (cAMP) (BEAS-2B cells) | inhibition at 10 µM ([1]; read-out: inhibition of specific binding at β1) [%] |
| --- | --- | --- | --- | --- | --- |
| COc1ccc(CC(C)NCC(O)c2ccc(O)c(N)c2)cc1 (single isomer, unassigned) [(R,R)-Desformoterol, 3-Amino-4-hydroxy-α-[[[2-(4-methoxyphenyl)-1-methylethyl]amino]methyl]-benzenemethanol] | 3180 | 35.6 | 89 | – | – |
| COc1ccc(CC(C)NCC(O)c2ccc(O)c(N)c2)cc1 (single isomer, unassigned) [(R,S)-Desformoterol, 3-Amino-4-hydroxy-α-[[[2-(4-methoxyphenyl)-1-methylethyl]amino]methyl]-benzenemethanol] | 1790 | 3140 | 0.6 | – | – |
| COc1ccc(CC(C)NCC(O)c2ccc(O)c(N)c2)cc1 (single isomer, unassigned) [(S,S)-Desformoterol, 3-Amino-4-hydroxy-α-[[[2-(4-methoxyphenyl)-1-methylethyl]amino]methyl]-benzenemethanol] | 64700 | > 10000 | – | – | – |
| CC(C)(C)NC[C@H](O)c1ccc(O)c(CO)c1 [(R)-Albuterol] | – | – | – | 0.44 | – |
| COc1ccc(CC(C)NCC(O)c2ccc(O)c(N)c2)cc1 [(R,R/S,S)-Desformoterol, 3-Amino-4-hydroxy-α-[[[2-(4-methoxyphenyl)-1-methylethyl]amino]methyl]-benzenemethanol] | 5140 | 81.3 | 63 | – | – |
| COc1ccc(C[C@@H](C)NCC(O)c2ccc(O)c(N)c2)cc1 (stereo partly drawn) [(S,R)-Desformoterol, 3-Amino-4-hydroxy-α-[[[2-(4-methoxyphenyl)-1-methylethyl]amino]methyl]-benzenemethanol] | – | 1830 | – | – | 22 |
| CC(C)NCC(O)c1ccc(O)c(O)c1 (stereo not drawn) [Isoproterenol] | – | – | – | 1.00 | – |
